Results on three molecules are retold here after patent US20110052697A1, “Aptamer-Directed Drug Delivery” (GWANGJU INSTITUTE OF SCIENCE & TECHNOLOGY, priority 2006, published 2011).

≈ marks a conversion by molar mass, not a printed value. Entries after “also recorded” stand apart in the source; their conditions may differ.

For series [1] the following is noted: cited from earlier work.
In a further series the target is A10 PSMA aptamer. Put plainly: Fluorescence quenching titration of Dox with the A10 PSMA aptamer (Hill plot). Format: binding. Particulars: FIG. 2 inset. Here is the method:
A complex comprising the A10 PSMA aptamer (RNA-Tec, Belgium) and doxorubicin (Dox) was generated through the stepwise addition of increasing molar ratio of aptamer to a fixed concentration of doxorubicin (3 μM) in the presence of 0.1 M sodium acetate, 0.05 M sodium chloride, and 0.01 M magnesium chloride. The fluorescence of Dox was measured at 35 minutes by exciting the solution at 480 nm and recording the emission in the interval of 500 nm-720 nm (1.5 mm slit) on a Shimadzu RF-PC100 spectrofluorophotometer.

A further series relates to LNCaP(PSMA+) cells. Nature of the series: Cell uptake by confocal laser scanning microscopy, LNCaP. Format: cell-based. Particulars: 1.5 μM Dox, 2 hours. The protocol: (§1) Prostrate cancer cell lines LNCaP(PSMA+) and PC3 (PSMA−) (5*10^3 cells/mL) were grown in chamber slides in RPMI 1640 media with 10% fetal bovine serum for 24 hours to attain 70% confluence. Before incubation with complex, cells were pre-incubated with OPTIMEM media for 30 minutes, followed by incubation with physical complex of 1.0:1.1 molar ratio of Dox:aptamer with a doxorubicin concentration of 1.5 μM for 2 hours, the cells were washed with PBS twice, fixed with 3.5% HCHO for 10 minutes, washed, mounted with Vector mounting media and cover slipped. Fluorescence images were obtained (Carl Zeiss LSM 510, Ar laser 488, long pass filter 560,63× water lens.)

The next series relates to PC3 (PSMA−) cells. Nature of the series: Cell uptake by confocal laser scanning microscopy, PC3. Particulars: 1.5 μM Dox, 2 hours. Format: cell-based. Here is the method: as §1
In series [2] the test system is LNCaP cells. Put plainly: Flow cytometry of cellular uptake, LNCaP. The note with it: LNCaP compared to PC3; 1.5 μM. Format: cell-based. Here is the method: (§2) Cellular uptake of the complex was confirmed using flow cytometry (EPICS XL Flow cytometry systems, Beckman Coulter, Inc). Briefly, 5×10^4 cells were seeded onto 12 well plates (n=4) for 24 hours followed by incubation for 2 hours with the complex solution (1.0:1.1 mole ratio of Dox:aptamer) such that final Dox concentration was 1.5 μM. Cells were washed with PBS twice, trypsinized, centrifuged at 1000 rpm for 3 minutes and resuspended in PBS for FACS analysis. Data were processed with EXPO 32 software.
(Flow cytometry measures light scatter and fluorescence of single cells or particles in a stream.)

Series [3] deals with PC3 cells. Put plainly: Flow cytometry of cellular uptake, PC3. Format: cell-based. Particulars: PC3 compared to LNCaP; 1.5 μM. Here is the method:
as §2

Series [4] relates to LNCaP cells. The note with it: MTT, QD 100 nM, Dox 5 μM. Here is the method:
(§3) The prostate LNCaP and PC3 cell lines were grown in 24-well plates in RPMI-1640 and Ham's F-12K medium, respectively, both supplemented with 100 units/ml aqueous penicillin G, 100 μg/ml streptomycin, and 10% FBS (fetal bovine serum) at concentrations to allow 70% confluence in 24 hours (i.e., 40,000 cells/cm^2). […] Cells were incubated with the conjugates for 3 hours at 37° C., washed two times with PBS (1 ml per well), and incubated in fresh growth media for a total of 72 hours. Cell viability was assessed colorimetrically with the MTT reagent (ATCC) following the standard protocol provided by the manufacturer. The absorbance was read with a microplate reader at 570 nm.

Series [5] has as its system PC3 cells. Particulars: MTT, QD 100 nM, Dox 5 μM. Here is the method:
as §3

For series [6], the system named is LNCaP cells. The note with it: cited from earlier work.
Series [7] deals with PC3 cells. The note with it: cited from earlier work.

Consider `CC(=O)O[C@@]12CO[C@@H]1C[C@H](O)[C@@]1(C)C(=O)[C@H](O)C3=C(C)[C@@H](OC(=O)[C@H](O)[C@@H](NC(=O)OC(C)(C)C)c4ccccc4)C[C@@](O)([C@@H](OC(=O)c4ccccc4)[C@H]21)C3(C)C` [Dtxl, docetaxel], for which, in series [1], the water solubility was 0.025 µg/mL (≈ 0.0309 µM).

Regarding `COc1cccc2c1C(=O)c1c(O)c3c(c(O)c1C2=O)C[C@@](O)(C(=O)CO)C[C@@H]3O[C@H]1C[C@H](N)[C@H](O)[C@H](C)O1` [free Dox, doxorubicin], the “Kd expressed as equiv of the aptamer” value at A10 PSMA aptamer is 0.52 equiv. Besides, the “uptake / staining by confocal microscopy” value is “readily diffuses through the plasma membrane; also recorded: almost exclusively stains nuclei” with LNCaP(PSMA+) cells and “readily diffuses through the plasma membrane” in the series on PC3 (PSMA−) cells. Besides, the “staining by flow cytometry” value in the series with LNCaP cells [2] and in the series with PC3 cells [3] was “near-identical staining” in each case. In addition, the “cytotoxicity” value in the series on LNCaP cells [4] and with PC3 cells [5] was “equipotent” each time.

B1: free aptamer: A10 RNA aptamer that binds to the PSMA protein on the surface of prostate cancer cells (Lupold et al., 2002) (nucleic acid)
chain: GGGAGGACGAUGCGGAUCAGCCAUGUUUACGUCACUCCUUGUCAAUCCUCAUCGGCAGACGACUCGCCCGA
modifications: chemistry not given here
For the molecule B1, the “cytotoxicity, previously reported” value in the series on LNCaP cells [6] and with PC3 cells [7] was “no cytotoxicity” throughout.
